Experimental data taken from patent US20230256190A1, “Methods Of Administering High Concentrations Of Nitric Oxide” (Mallinckrodt Hospital Products IP Unlimited Company, priority 2012, published 2023).

Tests used:
healthy subjects [1] = assay: Multiple-dose, single-blind, placebo-controlled tolerance study of pulsed nitric oxide: adverse events; type: in vivo, human; conditions: for Total % with any AE: 72 h pulsed inhalation
Experimental: (§1) A multiple-dose, single-blind, placebo-controlled, tolerance study of pulsed volumes of nitric oxide was completed using healthy subjects. An objective of the study was to determine safe dosing limits of inhaled nitric oxide delivered via a pulse system at cylinder concentrations of 100, 400, and 800 ppm and gas volumes ranging from 4 to 60 mL/breath at dose rates ranging from 17 to 166 μg of NO/sec. Yet another objective of the study was to determine the safety profile, including adverse events (AEs), vital signs and laboratory parameters.
(§2) Six subjects were assigned to each cohort (5 NO, 1 placebo) in a randomized, single-blind fashion. All subjects received 72 hours of continuous inhalation. A total of 22 cohorts were evaluated, with NO doses ranging from 125 to 1500 nmol/breath at delivery concentrations of 100, 400, or 800 ppm and varying volumes (4 to 60 mL per breath) in a matrix design, as shown in Table 1. Vital signs and safety laboratory were evaluated. Blood samples for determination of methemoglobin (MetHb) in venous blood, were collected for 72 hours at selected time points.
(§3) Primary safety evaluations included: (1) qualitative assessment of local nasal tolerability via a scoring system (0 to 3); and (2) formation of MetHb (compared with a standard of 7%) following varying concentrations and volumes of pulsed doses of NO. Safety evaluations included assessments of adverse events (AEs), medical history, physical examinations, vital signs, electrocardiograms (ECGs) and laboratory assessments at baseline and during the study period.
(§4) All evaluations were performed on the ‘Safety’ population, defined as all subjects who were enrolled and treated with any amount of study drug. Descriptive statistics included mean, standard deviation (SD), range, median, CV %, geometric mean and geometric CV %.
(§5) For analysis purposes, cohorts that received the same dose of NO but different cylinder concentrations and volumes were pooled, thereby creating 15 dose levels (n=14 active NO and 1 placebo, from all dose groups combined). These 15 dose levels were grouped into 4 dose analysis groups: placebo, low-dose NO (1-500 nmol/breath), mid-dose NO (501-1000 nmol/breath), and high-dose NO (1001-1500 nmol/breath).

healthy subjects [2] = assay: Local nasal tolerability scoring (0 to 3) during 72 hours of pulsed nitric oxide inhalation; type: in vivo, human; conditions: for Local tolerability Mean Score / Percent of Subjects Experiencing Nasal Irritation: 72 hours
Experimental: as §1
as §2, with “All subjects received 72 hours of continuous inhalation.” left out, “Blood samples for determination of methemoglobin (MetHb) in venous blood, were collected for 72 hours at selected time points.” left out
as §3, §4, §5
For analysis purposes, cohorts that received the same dose rate of administration of NO but different cylinder concentrations, doses and volumes were pooled, thereby creating 6 dose rate of administration levels (n=5 active NO and 1 placebo, from all rate of administration groups combined). The dose rate of administration of NO was calculated as the product of the flow rate of NO and the cylinder NO concentration.

[3] = NO 501-1000 nmol/breath (N = 45)
[4] = NO 1001-1500 nmol/breath (N = 15)

In the case of `[N]=O` [NO, Nitric oxide], the “Back pain (% of subjects)” value (healthy subjects [1]; NO 1-500 nmol/breath (N = 50)) is reported as 6.0%, the “Headache (% of subjects)” value (healthy subjects [1]; NO 1-500 nmol/breath (N = 50)) is reported as 8.0% and the “Nausea (% of subjects)” value (healthy subjects [1]; NO 1-500 nmol/breath (N = 50)) is reported as 2.0%. The “Total % with any AE” value (healthy subjects [1]; NO 1-500 nmol/breath (N = 50)) was 28.0%, the “Back pain (% of subjects)” value (healthy subjects [1]; [3]) was 4.4% and the “Headache (% of subjects)” value (healthy subjects [1]; [3]) was 4.4%. The “Nausea (% of subjects)” value (healthy subjects [1]; [3]) was 4.4%, the “Total % with any AE” value (healthy subjects [1]; [3]) was 33.3% and the “Back pain (% of subjects)” value (healthy subjects [1]; [4]) was 0.0%. For the same molecule, the “Headache (% of subjects)” value (healthy subjects [1]; [4]) was 20.0%, the “Nausea (% of subjects)” value (healthy subjects [1]; [4]) was 6.7% and the “Total % with any AE” value (healthy subjects [1]; [4]) was 53.3%. The “Overall incidence of AEs” value (healthy subjects [1]; across dose, cylinder concentration and volume cohorts) was “only dose related”, the “Subjects withdrawn due to chest discomfort, decreased O2 saturation, and dyspnea” value (healthy subjects [1]; high-dose NO group (1001-1500 nmol/breath), one subject) was 6.7% and the “Local tolerability Mean Score” value (healthy subjects [2]; cylinder concentration 100 ppm) was 0.10. The “Local tolerability Mean Score” value (healthy subjects [2]; cylinder concentration 400 ppm) was 0.09, the “Local tolerability Mean Score” value (healthy subjects [2]; cylinder concentration 800 ppm) was 0.33 and the “Local tolerability Mean Score” value (healthy subjects [2]; dose group 125 nmol/breath, score 0 to 3) was 0.07. For the same molecule, the “Local tolerability Mean Score” value (healthy subjects [2]; dose group 250 nmol/breath, score 0 to 3) was 0.00, the “Local tolerability Mean Score” value (healthy subjects [2]; dose group 340 nmol/breath, score 0 to 3) was 0.10 and the “Local tolerability Mean Score” value (healthy subjects [2]; dose group 420 nmol/breath, score 0 to 3) was 0.00. For the same molecule, the “Local tolerability Mean Score” value (healthy subjects [2]; dose group 500 nmol/breath, score 0 to 3) was 0.10, the “Local tolerability Mean Score” value (healthy subjects [2]; dose group 585 nmol/breath, score 0 to 3) was 0.40 and the “Local tolerability Mean Score” value (healthy subjects [2]; dose group 670 nmol/breath, score 0 to 3) was 0.00. For the same molecule, the “Local tolerability Mean Score” value (healthy subjects [2]; dose group 750 nmol/breath, score 0 to 3) was 0.00, the “Local tolerability Mean Score” value (healthy subjects [2]; dose group 840 nmol/breath, score 0 to 3) was 0.60 and the “Local tolerability Mean Score” value (healthy subjects [2]; dose group 920 nmol/breath, score 0 to 3) was 0.00. The “Local tolerability Mean Score” value (healthy subjects [2]; dose group 1000 nmol/breath, score 0 to 3) was 0.33, the “Local tolerability Mean Score” value (healthy subjects [2]; dose group 1160 nmol/breath, score 0 to 3) was 0.40 and the “Local tolerability Mean Score” value (healthy subjects [2]; dose group 1340 nmol/breath, score 0 to 3) was 0.20. For the same molecule, the “Local tolerability Mean Score” value (healthy subjects [2]; dose group 1500 nmol/breath, score 0 to 3) was 0.75, the “Percent of Subjects Experiencing Nasal Irritation” value (“Percent” below) (healthy subjects [2]; dosing rate 17 μg NO/sec) was 0% and the “Percent” value (healthy subjects [2]; dosing rate 21 μg NO/sec) was 10.0%. The “Percent” value (healthy subjects [2]; dosing rate 33 μg NO/sec) was 10%, the “Percent” value (healthy subjects [2]; dosing rate 83 μg NO/sec) was 10% and the “Percent” value (healthy subjects [2]; dosing rate 167 μg NO/sec) was 36.4%. The “Local tolerability Mean Score” value (healthy subjects [2]; pulse volume 4 mL/pulse) was 0.00, the “Local tolerability Mean Score” value (healthy subjects [2]; pulse volume 8 mL/pulse) was 0.00 and the “Local tolerability Mean Score” value (healthy subjects [2]; pulse volume 10 mL/pulse) was 0.20. The “Local tolerability Mean Score” value (healthy subjects [2]; pulse volume 15 mL/pulse) was 0.10, the “Local tolerability Mean Score” value (healthy subjects [2]; pulse volume 20 mL/pulse) was 0.00 and the “Local tolerability Mean Score” value (healthy subjects [2]; pulse volume 25 mL/pulse) was 0.60. The “Local tolerability Mean Score” value (healthy subjects [2]; pulse volume 30 mL/pulse) was 0.07, the “Local tolerability Mean Score” value (healthy subjects [2]; pulse volume 35 mL/pulse) was 0.40 and the “Local tolerability Mean Score” value (healthy subjects [2]; pulse volume 40 mL/pulse) was 0.10. For the same molecule, the “Local tolerability Mean Score” value (healthy subjects [2]; pulse volume 45 mL/pulse) was 0.33, the “Local tolerability Mean Score” value (healthy subjects [2]; pulse volume 50 mL/pulse) was 0.00 and the “Local tolerability Mean Score” value (healthy subjects [2]; pulse volume 55 mL/pulse) was 0.00. For the same molecule, the “Local tolerability Mean Score” value (healthy subjects [2]; pulse volume 60 mL/pulse) was 0.30, the Nasal irritation (healthy subjects [2]; doses less than 420 nmol/breath (about 0.4 mg/kg/hr), 48 hours of continuous administration) was “no evidence of nasal irritation” and the “Nasal tolerability compared with placebo” value (healthy subjects [2]; doses less than 420 nmol/breath, at 72 hours) was “no different than for placebo”. For the same molecule, the “Subjects with nasal redness” value (healthy subjects [2]; doses less than 420 nmol/breath, at 72 hours, placebo 3/18) was 2/18, the “Incidence of nasal irritation” value (healthy subjects [2]; dosing rate of 166 μg g/sec, including a case of nasal ulceration) was “higher incidence of nasal irritation” and the “Nasal tolerability compared with placebo” value (healthy subjects [2]; dosing rates up to 166 μg/sec, 72 hours pulsed dosing) was “not different from placebo”.
